Test results: patent EP4741383A1, “COMPOUND AND USE THEREOF AS ANTI-CANCER DRUG” (Tyligand Bioscience (Shanghai) Limited, priority 2023, dated 2025)

Key:
Format in all cases: cell-based
A20 = assay: CellTiter-Glo cell proliferation inhibition, A20; settings: A20 (mouse B-cell lymphoma cell line), 72 hours; read-out: Example IC50 (µM) A20
Description: (§1) This experiment used the CellTiter-Glo® Luminescent Cell Viability Assay kit from Promega to evaluate the inhibitory activity of the disclosed compounds on the proliferation of the following cell lines: 4T1 (mouse breast cancer cell line), A20 (mouse B-cell lymphoma cell line), A2780 (human ovarian cancer cell line), AsPC-1 (pancreatic cancer cell line), B16F10 (mouse melanoma cell line), BT549 (human breast cancer cell line), CT26 (mouse colon cancer cell line), EMT6 (mouse breast cancer cell line), HCT116 (colorectal cancer cell line), Jurket (acute leukemia cell line), KP-4 (pancreatic cancer cell line), LL/2 (mouse lung cancer cell line), MCF7 (breast cancer cell line), […] NCI-H358 (lung cancer cell line), NCI-H727 (gastric cancer cell line), NCI-1944 (lung cancer cell line), Pan 04.03 (pancreatic cancer cell line), SK-BR-3 (breast cancer cell line), THP-1 (leukemia cell line), TOV21G (ovarian cancer cell line), U87MG (glioblastoma cell line), and UM-UC-a (bladder cancer cell line).
(§2) All cell lines were purchased from Nanjing Kebai Biotechnology Co., Ltd. The following materials were also used in the experiment: RPMI-1640 media (HyClone, catalog number #SH30022.01), McCoy's 5A media (Thermo Fisher, catalog number #16600-082), MCDB 105 media (Sigma, catalog number #117-500), Medium 199 (Thermo Fisher, catalog number #11150-059), MEM media (Thermo Fisher, catalog number #11095-080), DMEM media (HyClone, catalog number #SH30027.01), fetal bovine serum (FBS) (ExCell, catalog number # M4530), Sodium Pyruvate (100Mm) (Thermo Fisher, catalog number #11360-070), and MEM NEAA (100X) (Thermo Fisher). […]
(§3) Cells were cultured according to the instructions provided by the cell supplier (Nanjing Kebai Biotechnology Co., Ltd.). […] Suspension or adherent cells were collected, and cell viability was determined using the trypan blue exclusion method, ensuring that cell viability was above 90%. […]

HCT116 = assay: CellTiter-Glo cell proliferation inhibition, HCT116; settings: Homo sapiens, HCT-116; HCT116 (colorectal cancer cell line), 72 hours; read-out: Example IC50 (µM) HCT116
Description: as §1, §2, §3

NCI-H358 = assay: CellTiter-Glo cell proliferation inhibition, NCI-H358; settings: Homo sapiens; NCI-H358 (lung cancer cell line), 2D, 72 hours; read-out: Example IC50 (µM) NCI-H358(2D)
Description: as §1, §2, §3

THP-1 = assay: CellTiter-Glo cell proliferation inhibition, THP-1; settings: Homo sapiens; THP-1 (leukemia cell line), 72 hours; read-out: Example IC50 (µM) THP-1
Description: as §1, §2, §3

| IC50 (HCT116) [µM] | IC50 (NCI-H358) [µM] | IC50 (THP-1) [µM] | SMILES | IC50 (A20) [µM] |
| --- | --- | --- | --- | --- |
| 0.111 | 0.074 | 0.086 | O=C(Nc1ccc(-c2csc(CO)c2)cc1)C(=O)Nc1ccc(-c2cc3cc(F)c(-c4nnn[nH]4)cc3n2C2CCC2)cc1 [Example 1] | 0.077 |
| 0.078 | 0.072 | 0.063 | CC1(n2c(-c3ccc(NC(=O)C(=O)Nc4ccc(N5CCC6(CCOC6)CC5)cc4)cc3)cc3cc(F)c(-c4nnn[nH]4)cc32)CCC1 [Example 68] | 0.075 |
| 0.044 | 0.063 | 0.07 | O=C(Nc1ccc(-c2cc3cc(F)c(-c4nnn[nH]4)cc3n2C2CCC2)cc1)C(=O)Nc1ccc(N2CCC3(CCC(O)C3)CC2)cc1 (stereo not drawn) [Example 100] | 0.128 |
